# Assay results: PubChem BioAssay (NCI)
#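 96-well plates; 48 h exposure; 5 concentrations. Endpoints by linear interpolation between flanking doses. Not reached: highest tested concentration assigned. The concentration for 50% growth inhibition is given as GI50. TGI marks complete inhibition of growth.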
# Assays:
# Assay in all cases: NCI anticancer screen, dose series, 48 h
# [1] = system: CAKI-1 renal
# [2] = system: HOP-92 NSCLC
# [3] = system: IGROV1 ovarian
# [4] = system: MALME-3M melanoma
# [5] = system: MCF7 breast
# [6] = system: MDA-MB-435
# [7] = system: NCI-H226 lung
# [8] = system: SF-295 CNS
# [9] = system: SK-MEL-2 melanoma
# [10] = system: SNB-19 CNS
Compound,GI50 [1] [µM],TGI [1] [µM],GI50 [2] [µM],TGI [2] [µM],GI50 [3] [µM],TGI [3] [µM],GI50 [4] [µM],TGI [4] [µM],GI50 [5] [µM],TGI [5] [µM],GI50 [6] [µM],TGI [6] [µM],GI50 [7] [µM],TGI [7] [µM],GI50 [8] [µM],TGI [8] [µM],GI50 [9] [µM],TGI [9] [µM],GI50 [10] [µM],TGI [10] [µM]
O=Nc1ccc2ccccc2c1O,3.14,19.3,13.4,27.3,2.07,5.91,3.39,8.51,3.17,12.5,2.31,4.53,12.4,29.1,7.78,25.4,2.34,5.29,15,28.4
NC1=NC(c2ccc(Cl)cc2)C2=C(N1)/C(=C/c1ccc(Cl)cc1)CCC2 (configuration not stated),13.6,> 96.7,14.2,40.5,15,> 64.4,19.4,50.8,3.62,> 100,2.87,12,4.25,11.8,5.71,25.8,37.7,> 70.2,19.8,99.3
COc1ccc2c(c1)C(=O)/C(=C/c1ncc([N+](=O)[O-])n1C)O2,0.23,0.617,1.23,4.51,0.985,6.91,0.288,1.07,0.32,7.98,0.161,0.323,2.09,5.3,1.5,3.88,0.361,1.61,1.26,6.08
C=CC1CC12C(=O)C1OC2(C)C2C(=O)c3c(O)ccc(O)c3C(=O)C12 (configuration not stated),0.402,1.65,2.69,6.59,3.26,> 100,1.46,4.76,2.2,8.38,4.44,11.1,5.8,14.2,1.39,5.55,14.5,> 100,5.35,14.5
N#CC1=C(N)NC(=O)NC12Nc1ccccc1S2 (configuration not stated),30.1,> 72.6,91.3,> 100,> 45.7,> 74.8,4.63,42.5,24.6,> 73.5,31.7,> 88.4,14.4,36.9,26.4,> 65.7,> 44.4,> 64.2,44.5,> 100
COc1cc(-c2nc3sc4c(c3c(=O)[nH]2)CCCCCC4)cc(OC)c1OC,1.23,> 33.2,0.887,9.45,4.58,> 33.2,4.32,20.5,0.903,> 33.2,0.115,0.611,3.6,> 33.2,0.692,6.53,1.11,7.5,1.56,> 33.2
C/C(=N\N=C(/[Se])N1CC2CCC(CC2)C1)c1ccccn1,,1.95,,1.18,,2.48,,0.567,,2.8,,0.619,,1.88,,2.24,,0.716,,4.06
COc1cc(/C=C2\CN(C)C/C(=C\c3cc(CN4CCCCC4)c(O)c(OC)c3)C2=O)cc(CN2CCCCC2)c1O,4.62,17.5,2.55,9.21,3.36,13.6,5.62,19.6,2.93,13.9,3.6,13.2,10.5,25.9,4.52,17.1,3.53,13.2,,
COc1cc(/C=C2\CCC(CN(C)C)C2=O)ccc1OC(=O)c1ccccc1 (configuration not stated),,32.5,,32.6,,27.9,,29.5,,21,,27.3,,33.8,,32,,32.7,,25.5
O=C(O)c1cc(N=Cc2ccccc2O)cc(C(=O)O)c1,,> 100,,> 100,,> 100,,> 100,,> 100,,> 100,,> 100,,> 100,,> 100,,> 100
COc1ccc2nc3cc(Cl)ccc3c(NCCCNCCC(C)O)c2c1 (configuration not stated),0.735,3.43,0.535,2.76,0.39,2.47,0.714,2.21,0.351,1.72,0.504,1.79,0.943,3.11,0.276,1.63,0.704,2.25,0.423,2.69
COc1cccc2c1C(=O)c1c(O)c3c(c(O)c1C2=O)C[C@@](O)(C(=O)CO)C[C@@H]3OC1C[C@H](N)[C@H](O)[C@H](C)O1 (some centres not stated),,4.18,0.0236,0.233,0.0901,8.58,0.0462,0.145,0.00926,4.15,0.109,0.574,0.0201,0.102,0.0371,0.372,0.141,5.47,0.0246,6.33
COc1ccc2c(c1)C(c1ccccc1Cl)=Nc1c(n[nH]c1C)N2,> 8.82,> 25,> 25,> 25,> 25,> 25,> 25,> 25,13.7,> 25,> 25,> 25,3.28,> 25,> 25,> 25,> 11.2,> 23.4,> 25,> 25
c1ccc(-c2nc(-c3ccccc3)c(-c3ccccc3)[nH]2)cc1,,> 100,,> 100,,> 100,,> 100,,> 100,,> 100,,> 100,,> 100,,> 100,,> 100
